Source: patent publication US20230295106A1 (priority 2019, published 2023)

How the values were obtained:
[1] = biological target: T1, 5-HT2C edited (accession number AAF35842.1) (Homo sapiens, UniProt P28335, I156V/I160V/N158S); experiment: cell-based; conditions: 5-HT2C IPOne Agonism Activity
Target sequence in this assay (P28335 whole entry I156V/N158S/I160V, looked up): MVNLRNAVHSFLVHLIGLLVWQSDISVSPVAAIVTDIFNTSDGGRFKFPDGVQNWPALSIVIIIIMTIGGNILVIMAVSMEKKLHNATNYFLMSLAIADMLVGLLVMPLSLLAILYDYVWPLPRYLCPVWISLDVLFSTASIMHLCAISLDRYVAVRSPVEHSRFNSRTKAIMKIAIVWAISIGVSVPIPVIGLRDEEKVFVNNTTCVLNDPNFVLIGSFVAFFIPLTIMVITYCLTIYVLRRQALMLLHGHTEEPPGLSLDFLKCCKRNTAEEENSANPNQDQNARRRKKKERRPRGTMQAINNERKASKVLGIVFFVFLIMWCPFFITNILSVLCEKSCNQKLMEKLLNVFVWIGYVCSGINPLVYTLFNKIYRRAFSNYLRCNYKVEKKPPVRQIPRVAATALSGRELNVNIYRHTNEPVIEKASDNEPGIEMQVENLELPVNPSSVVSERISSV

[2] = biological target: T1, 5-HT2C edited (accession number AAF35842.1); experiment: biochemical; conditions: 5-HT2C Radioligand Binding Activity
Target sequence in this assay (P28335 33-458 I156V/N158S/I160V limits assumed): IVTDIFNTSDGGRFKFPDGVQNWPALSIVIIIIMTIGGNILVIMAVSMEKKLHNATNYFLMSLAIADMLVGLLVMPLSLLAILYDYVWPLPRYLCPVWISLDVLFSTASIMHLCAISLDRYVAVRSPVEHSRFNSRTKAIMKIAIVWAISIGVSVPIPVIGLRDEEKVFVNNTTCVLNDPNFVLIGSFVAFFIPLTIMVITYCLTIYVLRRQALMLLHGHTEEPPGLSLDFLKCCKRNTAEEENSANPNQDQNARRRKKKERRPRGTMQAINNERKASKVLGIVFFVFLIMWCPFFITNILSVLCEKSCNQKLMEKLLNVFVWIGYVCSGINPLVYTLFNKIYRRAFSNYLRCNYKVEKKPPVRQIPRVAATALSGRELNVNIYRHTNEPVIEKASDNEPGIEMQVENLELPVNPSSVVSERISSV

[3] = biological target: human recombinant 5-HT2C edited receptor (accession number AAF35842.1) (Homo sapiens, UniProt P28335, I156V/N158S/I160V); experiment: cell-based; conditions: read-out: 5-HT2C IPOne Agonism Activity
Sequence of human recombinant 5-HT2C edited receptor (accession number AAF35842.1) (P28335 whole entry I156V/N158S/I160V, looked up): as the sequence (P28335 whole entry I156V/N158S/I160V, looked up) above

With `CCN(CC)C(=O)[C@@H]1C=C(c2cc(OC)cc(OC)c2)CN(C)C1` (single isomer, unassigned) [Compound 5, 5-(3,5-dimethoxyphenyl)-N,N-diethyl-1-methyl-1,2,3,6-tetrahydropyridine-3-carboxamide] the EC50 [1] was 0.101 to 1 µM and the IC50 [2] was 0.101 to 1 µM.

`CCN(CC)C(=O)[C@@H]1C=C(c2cc(OC)cc(OC)c2)CN(C)C1` (single isomer, unassigned) [Compound 6, 5-(3,5-dimethoxyphenyl)-N,N-diethyl-1-methyl-1,2,3,6-tetrahydropyridine-3-carboxamide] showed an EC50 [1] of 1 to 10 µM and an IC50 [2] of 1 to 10 µM.

With `CCN(CC)C(=O)[C@@H]1C=C(c2ccccc2OC)CN(C)C1` (single isomer, unassigned) [Compound 7, N,N-diethyl-5-(2-methoxyphenyl)-1-methyl-1,2,3,6-tetrahydropyridine-3-carboxamide] the EC50 [1] was 0.101 to 1 µM and the IC50 [2] was 0.101 to 1 µM.

Work on `CCN(CC)C(=O)[C@@H]1C=C(c2ccccc2OC)CN(C)C1` (single isomer, unassigned) [Compound 8, N,N-diethyl-5-(2-methoxyphenyl)-1-methyl-1,2,3,6-tetrahydropyridine-3-carboxamide] yielded an EC50 [1] of 1 to 10 µM and an IC50 [2] of 1 to 10 µM.

Work on `CCN(CC)C(=O)[C@@H]1C=C(c2cccc(OC)c2)CN(C)C1` (single isomer, unassigned) [Compound 9, N,N-diethyl-5-(3-methoxyphenyl)-1-methyl-1,2,3,6-tetrahydropyridine-3-carboxamide] yielded an EC50 [1] of 0.01 to 0.1 µM and an IC50 [2] of 0.01 to 0.1 µM.

`CCN(CC)C(=O)[C@@H]1C=C(c2cccc(OC)c2)CN(C)C1` (single isomer, unassigned) [Compound 10, N,N-diethyl-5-(3-methoxyphenyl)-1-methyl-1,2,3,6-tetrahydropyridine-3-carboxamide] showed an EC50 [1] of 0.101 to 1 µM and an IC50 [2] of 0.101 to 1 µM.

In the case of `CN(C)C1Cc2cccc3ccn(c23)C1` (single isomer, unassigned) [Compound 14, N,N-dimethyl-5,6-dihydro-4H-pyrrolo[3,2,1-ij]quinolin-5-amine], the EC50 [1] is reported as 0.101 to 1 µM and the IC50 [2] is reported as 0.01 to 0.1 µM.

For `CN(C)C1Cc2cccc3ccn(c23)C1` (single isomer, unassigned) [Compound 15, N,N-dimethyl-5,6-dihydro-4H-pyrrolo[3,2,1-ij]quinolin-5-amine], the EC50 [3] was 0.101 to 1 µM and the IC50 [2] was 0.101 to 1 µM.

`NC1Cc2cccc3ccn(c23)C1` (centres unmarked) [Compound 13, 5,6-dihydro-4H-pyrrolo[3,2,1-ij]quinolin-5-amine] showed an EC50 [1] of 0.101 to 1 µM and an IC50 [2] of 0.101 to 1 µM.

For `CCN(CC)C1Cc2cccc3ccn(c23)C1` (centres unmarked) [Compound 16, N,N-diethyl-5,6-dihydro-4H-pyrrolo[3,2,1-]quinolin-5-amine], the EC50 [1] was 0.101 to 1 µM and the IC50 [2] was 0.101 to 1 µM.

`NC1Cc2cc(F)cc3ccn(c23)C1` (centres unmarked) [Compound 17, 8-fluoro-5,6-dihydro-4H-pyrrolo[3,2,1-ij]quinolin-5-amine] showed an EC50 [1] of 0.101 to 1 µM and an IC50 [2] of 0.101 to 1 µM.

Compound `NC1Cc2c(F)ccc3ccn(c23)C1` (centres unmarked) [Compound 19, 7-fluoro-5,6-dihydro-4H-pyrrolo[3,2,1-ij]quinolin-5-amine] has an EC50 [1] of 0.101 to 1 µM and an IC50 [2] of 0.101 to 1 µM.

With `NC1Cc2cc(Cl)cc3ccn(c23)C1` (centres unmarked) [Compound 21, 8-chloro-5,6-dihydro-4H-pyrrolo[3,2,1-ij]quinolin-5-amine] the EC50 [1] was 0.101 to 1 µM and the IC50 [2] was 0.101 to 1 µM.

For `NC1Cc2c(Cl)ccc3ccn(c23)C1` (centres unmarked) [Compound 23, 7-chloro-5,6-dihydro-4H-pyrrolo[3,2,1-ij]quinolin-5-amine], the EC50 [1] was 0.101 to 1 µM and the IC50 [2] was 0.101 to 1 µM.

`COc1cc2c3c(ccn3CC(N)C2)c1` (centres unmarked) [Compound 25, 8-methoxy-5,6-dihydro-4H-pyrrolo[3,2,1-ij]quinolin-5-amine] was tested, and the EC50 [1] was 1 to 10 µM and the IC50 [2] was 1 to 10 µM.

`NC1Cc2cccc3[nH]cc(c23)C1` (centres unmarked) [Compound 27, 1,3,4,5-tetrahydrobenzo[cd]indol-4-amine] gave an EC50 [1] of 0.101 to 1 µM and an IC50 [2] of 0.101 to 1 µM.
